# Experimental data published in paper PMC5578999, “Novel quinolone chalcones targeting colchicine-binding pocket kill multidrug-resistant cancer cells by inhibiting tubulin activity and MRP1 function” (Scientific Reports, 2017).
# Legend:
# Test in all cases: NCI-60 SRB screen
# Format in all cases: cell-based
# A498 = tested on: A498
# Description: (§1) Supplementary Figure l egend
# (§2) 10μ M of CTR-20 was used to examine the drug’s efficac y against the NC I-60 cancer cell li nes including: six leukemia cell lines, nine non- small cell lung cancer cell lines, seven color ect al cancer cell lines, six CNS cancer cell lines, nine melanoma cell lines, seven ovari an can cer cell lines, seven ren al can cer cell lines, two prostate cancer cell lines and six breast cancer cell lines. The scr eenin g was car r ied out b y the US National Cancer Institute (NC I) us i n g a sulforhodamine B (SRB) colorimetric assay. […]
# (§3) out by the NC I using five different doses of CTR -20.
# SK-OV-3 = tested on: SK-OV-3
# Description: as §1, §2, §3
# LOX IMVI = tested on: LOX IMVI
# Description: as §1, §2, §3
# RXF 393 = tested on: RXF 393
# Description: as §1, §2, §3
# 786-0 = tested on: 786-0
# Description: as §1, §2, §3
# MDA-MB-468 = tested on: MDA-MB-468
# Description: as §1, §2, §3
# [1] = Homo sapiens, read-out: LC50 (the source's name)
smiles,measurement,setting,value
"COc1ccc2[nH]c(=O)c(/C=C/C(=O)c3ccccc3OC)cc2c1 [CTR-20, (E)-6-Methoxy-3-(3-(2-methoxyphenyl)-3-oxoprop-1-enyl) quinolin-2(1H)-one]",Log10GI50,A498,-6.18 Molar
same,Log10LC50,A498,-4.63 Molar
same,Log10TGI,A498,-5.34 Molar
same,TGI,A498,4.55E-6 Molar
same,Growth Percent,A498; 1.00E-5 Molar,21.71%
same,GI50,A498; Homo sapiens,0.656 µM
same,CC50,A498; [1],23.6 µM
same,Percent Growth,A498; Log10 Concentration -4.0,-100%
same,Percent Growth,A498; Log10 Concentration -5.0,-20%
same,Percent Growth,A498; Log10 Concentration -6.0,39%
same,Percent Growth,A498; Log10 Concentration -7.0,99%
same,Percent Growth,A498; Log10 Concentration -8.0,97%
same,Log10GI50,SK-OV-3,-5.65 Molar
same,Log10LC50,SK-OV-3,-4.44 Molar
same,Log10TGI,SK-OV-3,-4.89 Molar
same,TGI,SK-OV-3,1.28E-5 Molar
same,Growth Percent,SK-OV-3; 1.00E-5 Molar,6.12%
same,GI50,SK-OV-3; Homo sapiens,2.23 µM
same,CC50,SK-OV-3; [1],36.2 µM
same,Percent Growth,SK-OV-3; Log10 Concentration -4.0,-99%
same,Percent Growth,SK-OV-3; Log10 Concentration -5.0,12%
same,Percent Growth,SK-OV-3; Log10 Concentration -6.0,70%
same,Percent Growth,SK-OV-3; Log10 Concentration -7.0,99%
same,Percent Growth,SK-OV-3; Log10 Concentration -8.0,87%
same,Log10GI50,LOX IMVI,-6.42 Molar
same,Log10LC50,LOX IMVI,-5.33 Molar
same,Log10TGI,LOX IMVI,-5.79 Molar
same,TGI,LOX IMVI,1.61E-6 Molar
same,Growth Percent,LOX IMVI; 1.00E-5 Molar,10.23%
same,GI50,LOX IMVI; Homo sapiens,0.379 µM
same,LC50,LOX IMVI; Homo sapiens,4.71 µM
same,Percent Growth,LOX IMVI; Log10 Concentration -4.0,-95%
same,Percent Growth,LOX IMVI; Log10 Concentration -5.0,-85%
same,Percent Growth,LOX IMVI; Log10 Concentration -6.0,22%
same,Percent Growth,LOX IMVI; Log10 Concentration -7.0,88%
same,Percent Growth,LOX IMVI; Log10 Concentration -8.0,96%
same,Log10GI50,RXF 393,-5.99 Molar
same,Log10LC50,RXF 393,-5.19 Molar
same,Log10TGI,RXF 393,-5.59 Molar
same,TGI,RXF 393,2.57E-6 Molar
same,Growth Percent,RXF 393; 1.00E-5 Molar,-7.90%
same,GI50,RXF 393; Homo sapiens,1.02 µM
same,CC50,RXF 393; [1],6.48 µM
same,Percent Growth,RXF 393; Log10 Concentration -4.0,-98%
same,Percent Growth,RXF 393; Log10 Concentration -5.0,-74%
same,Percent Growth,RXF 393; Log10 Concentration -6.0,51%
same,Percent Growth,RXF 393; Log10 Concentration -7.0,99%
same,Percent Growth,RXF 393; Log10 Concentration -8.0,99%
same,Log10GI50,786-0,-6.42 Molar
same,Log10LC50,786-0,-5.29 Molar
same,Log10TGI,786-0,-5.81 Molar
same,TGI,786-0,1.56E-6 Molar
same,Growth Percent,786-0; 1.00E-5 Molar,8.21%
same,GI50,786-0; Homo sapiens,0.378 µM
same,CC50,786-0; [1],5.11 µM
same,Percent Growth,786-0; Log10 Concentration -4.0,-97%
same,Percent Growth,786-0; Log10 Concentration -5.0,-78%
same,Percent Growth,786-0; Log10 Concentration -6.0,19%
same,Percent Growth,786-0; Log10 Concentration -7.0,93%
same,Percent Growth,786-0; Log10 Concentration -8.0,91%
same,Log10GI50,MDA-MB-468,-6.47 Molar
same,Log10LC50,MDA-MB-468,-4.40 Molar
same,Log10TGI,MDA-MB-468,-5.78 Molar
same,TGI,MDA-MB-468,1.65E-6 Molar
same,Growth Percent,MDA-MB-468; 1.00E-5 Molar,16.65%
same,GI50,MDA-MB-468; Homo sapiens,0.336 µM
same,CC50,MDA-MB-468; [1],40.1 µM
same,Percent Growth,MDA-MB-468; Log10 Concentration -4.0,-68%
same,Percent Growth,MDA-MB-468; Log10 Concentration -5.0,-22%
same,Percent Growth,MDA-MB-468; Log10 Concentration -6.0,6%
same,Percent Growth,MDA-MB-468; Log10 Concentration -7.0,99%
same,Percent Growth,MDA-MB-468; Log10 Concentration -8.0,99%
